This is an account of results in patent US20030212100A1, “Quinoline derivatives and medicinal use thereof” (priority 2000, published 2003).

In one experiment the target is T1, human PPARγ receptor (Homo sapiens, UniProt P37231).
T1 construct: corresponding to Ser204-Tyr506 for human PPARγ1 receptor and human PPARγ2; expressed in transfected cells; host or cells: CV-1 cells (pSG5-based expression vector)
T1 sequence (P37231 204-505 limits assumed): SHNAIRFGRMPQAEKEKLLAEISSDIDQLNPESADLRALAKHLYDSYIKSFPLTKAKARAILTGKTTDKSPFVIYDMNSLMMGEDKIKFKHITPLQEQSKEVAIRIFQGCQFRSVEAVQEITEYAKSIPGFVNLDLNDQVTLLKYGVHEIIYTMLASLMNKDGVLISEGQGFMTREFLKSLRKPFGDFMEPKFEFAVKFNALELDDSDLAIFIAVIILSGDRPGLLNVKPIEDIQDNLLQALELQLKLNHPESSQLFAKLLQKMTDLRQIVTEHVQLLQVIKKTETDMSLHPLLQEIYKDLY
The experiment can be described thus: Luciferase reporter assay of PPARγ agonist activity (Gal4-PPARγ chimera receptor in CV-1 cells). To be noted: luciferase activity with 1 μM Pioglitazone taken as 100, read-out: PPAR γ agonist activity, relative activity; for Emax at 0.1 µM: CV-1, 0.1 μM compound; for Emax at 1 µM: CV-1, 1 μM compound; for Emax at 10 µM: CV-1, 10 μM compound. Type of experiment: cell-based. As to the method:
(§1) Measurement of PPARα Agonist Activity and PPARγ Agonist Activity
(§2) 1. Materials for Assay of Luciferase Using Human PPARα and PPARγ Receptors
(§3) The entire procedure was carried out according to the fundamental methods of genetic engineering and the ordinary method in the yeast one-hybrid or two-hybrid system was applied.
(§4) PGL2-UAS5-TK-luc was prepared as a reporter plasmid carrying a response sequence of Gal4 protein as a basic transcription factor of yeast, an enhancer sequence with five repeat part of UAS, a luciferase gene (luc) under the control of timidine kinase (TK) promoter. Specifically, a DNA fragment encoding a TK promoter (−105/+51) on the downstream side of an enhancer sequence comprising two time repeat of UAS was amplified by PCR using pRL-TK carrying a TK promoter (Promega, Trade name: Catalogue No. E2241) as the template and the primers: […]
(§5) After the fragment was cleaved with XhoI-Hind III, pGL2-UAS2-TK-luc was obtained by inserting the resultant fragment into the XhoI-Hind III site located on the upstream side of a luciferase structural gene on pGL2-Basic vector (Promega, Trade name: Catalogue No. E1641).
(§6) After cleavage of a synthetic DNA as an enhancer sequence comprising three time repeat of Gal4 response sequence (SEQ ID NO: 3): 5′-ATTGGTAC([…])×3 AGATCTCGAC) using KpnI and BgIII was carried out, pGL2-UAS5-TK-luc was prepared by inserting the resulting fragment into the KpnI-BgIIIb site of pGL2-UAS2-TK-luc.
(§7) A vector for expression of a chimera receptor protein, in which a ligand binding region of an internuclear receptor human PPARα or PPARγ receptor was fused with the carboxyl terminal of a DNA binding region of yeast Ga14 protein, was prepared as follows:
(§8) The structural gene of pSG5 (STRATAGENE, Trade Name: Catalogue No. 216201) as the basic expression vector was changed for the chimera receptor except that the promoter-enhancer region was maintained as it was.
(§9) The DNA encoding the ligand binding region of the human PPARα or PPARγ receptor was fused on the downstream side of the DNA encoding the DNA binding region and the amino acid sequence from 1 to 147 positions of Ga14 protein so that their reading frames were fitted and the resulting fused DNA was inserted into pSG5 (trade name) on the down stream side of the promoter-enhancer region. In this step, the DNA sequence was arranged so that a signal for transfer into the nucleus (Ala Pro Lys Lys Lys Arg Lys Val Gly (SEQ ID: No: 4) derived from SV-40T antigen was located on the amino terminal of the ligand binding region of PPARα or PPARγ receptor in order to localize the chimera receptor in the nucleus.
(§10) Based on comparison of the human PPAR receptors described in R. Mukherjee et al., [see J. Steroid Biochem. Molec. Biol., Vol. 51, p157 (1994)] and M. E. Green et al., [see Gene Expression, Vol. 4, p281 (1995))], as the structural gene part used for the ligand binding region PPARα or PPARγ, the human PPARα ligand binding region: Ser167-Tyr468; and the PPARγ ligand binding region: Ser176-Tyr478 were used, which had the same sequences corresponding to Ser204-Tyr506 for human PPARγ1 receptor and human PPARγ2, respectively.
(§11) In order to monitor influence against the basic transcription, an expression vector was prepared which carried a DNA encoding only the DNA binding region and the amino acid sequence from 1 to 147 position of Ga14 protein defective in its PPAR ligand binding region and a signal for transfer into the nucleus of SV-40T-antigen.
(§12) 2. Assay of Luciferase Using Human PPARα or PPARγ Receptor
(§13) CV-1 cells used as a host cell were cultivated according to an ordinary method. Specifically, a fetal bovine serum (Intergent, Catalogue No. 1020-90) was added to a Dulbecco's modified Eagle's medium (DMEM) so that the final concentration became 10%. Further, penicillin G (50 U/ml) and streptomycin sulfate (50 μg/ml) were added. Cultivation was conducted in the resulting medium in a 5% carbon dioxide gas at 37° C. […]
For orientation: A reporter such as luciferase makes a cellular process visible.

In experiment [1] the test system is TNFα transcription (human TNF transcription-controlling region). Kind of experiment: Inhibition of TNFα production: luciferase under human TNF transcription-controlling region in 3T3-L1 cell strain No. 46. Format: cell-based. To be noted: 10 μM compound; luciferase activity with DMSO taken as 100 (no hTNF: 40%); 24 hours. The source says: Test for in-vitro Evaluation of the Action of Inhibiting the Production of Tumor Necrosis Factor α (TNFα) Using Lipocytes (Derived from 3T3-L1)
A luciferase gene was bonded to the downstream side of human TNF transcription-controlling region. The resulting material was stably inserted into the chromosomes of 3T3-L1 cells. The thus-obtained cell strain No. 46 was used for evaluation.
The cell strain No. 46 was cultivated according to an ordinary method. Specifically, a bovine serum (Cell Culture Technology, Catalogue No. CC017-502) was added to a Dulbecco's modified Eagle's medium (DMEM) so that the final concentration became 10%. Further, 50 U/ml of penicillin G, 50 ug/ml of streptomycin sulfate and 0.4 mg/ml of G418 were added. In the resulting medium was conducted cultivation in a 5% carbon dioxide gas at 37° C.
The cell strain No. 46 was planted into a PLL (poly L-lysine)-coated 48-well plate. When the cell strain reached confluence and then at least two days passed, the medium was substituted with the above medium containing 9 ng/m of hTNF (Genzyme) and an activity for TNFα transcription was induced. hTNF was added and, simultaneously therewith, a compound of the present invention was added so that the final concentration became 10 μM. 24 hours later, the cells were observed by a microscope. Then, the cells were fused and the luciferase activity was measured according to an ordinary method.
Regarding the activity for TNFα transcription, the luciferase activity when DMSO was added in place of the compound, was taken as 100; and the relative activity when 10 uM of the present compound was added, was shown in Table 1. Incidentally, the relative luciferase activity when no hTNF was added, was 40%.

The next experiment concerns the target T2, human PPARα receptor (Homo sapiens, UniProt Q07869).
T2 construct: expressed in transfected cells; host or cells: CV-1 cells (pSG5-based expression vector)
T2 sequence (Q07869 167-468): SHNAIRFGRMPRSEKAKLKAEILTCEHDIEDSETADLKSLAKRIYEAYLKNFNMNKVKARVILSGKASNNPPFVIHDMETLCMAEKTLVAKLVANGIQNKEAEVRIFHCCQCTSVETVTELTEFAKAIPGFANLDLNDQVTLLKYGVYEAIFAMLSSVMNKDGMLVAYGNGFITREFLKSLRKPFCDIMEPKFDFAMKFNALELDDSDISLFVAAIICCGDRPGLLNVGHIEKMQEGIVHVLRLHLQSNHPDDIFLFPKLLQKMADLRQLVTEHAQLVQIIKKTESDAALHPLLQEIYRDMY
The experiment can be described thus: Luciferase reporter assay of PPARα agonist activity (Gal4-PPARα chimera receptor in CV-1 cells). The note with it: luciferase activity with 10 μM Wy-14,643 taken as 100, read-out: PPARα agonist activity, relative activity; for Emax at 0.1 µM: CV-1, 0.1 μM compound; for Emax at 1 µM: CV-1, 1 μM compound; for Emax at 10 µM: CV-1, 10 μM compound. Type of experiment: cell-based. As to the method: as §1, §2, §3, §4, §5, §6, §7, §8, §9, §10, §11, §12, §13

Experiment [2] has as its system KK-Ay/Ta Jci type 2 diabetes mice. The experiment can be described thus: In-vivo blood sugar and lipid reduction in diabetes model mice (KKAy mice). Set-up: species or system mouse. To be noted: 30 mg/kg orally one time per day for 4 days, 5th day vs 1st day. On the procedure:
Test for in-vivo Evaluation of the Activities for Blood Sugar Reduction and Lipid Reduction Using Diabetes Model Mice (KKAy Mice)
Type 2 diabetes mice “KK-Ay/Ta Jci” (male, Clea Japan, Inc., 10-week old) put in cages were used (each cage contained 5 mice). In the morning of the 1st day of test start, a blood was collected from the orbital vein of each mouse. The blood sugar value in the blood was measured by subjecting the blood to deproteinization using perchloric acid, subjecting the resulting material to centrifugation, and subjecting the resulting supernatant liquid to a new blood sugar test (Boehringer Mannheim). Further, the blood was subjected to centrifugation to obtain a plasma and the triglyceride concentration and free fatty acid concentration in the plasma were measured using Triglyceride E-Test Wako and NEFA-C Test Wako (Wako Pure Chemical Industries, Ltd.), respectively. Grouping was made so that the blood sugar values in individual groups became the same. Then, an Example 2 compound (exemplary compound No. 61) was suspended in a 0.5% aqueous CMC solution and administered orally one time per day for 4 days. In the 5th day of test, blood collection was made to measure blood sugar value, triglyceride concentration and free fatty acid concentration. Incidentally, a group to which only the 0.5% aqueous CMC solution was administered, was used as a control group; and Pioglitazone was used in a positive control group. The reduction in parameter in each group was calculated using the following formula.
Reduction (%)={1−(parameter of 5th day in each group)/(parameter of 1st day in each group)}×100

For the compound `COc1ccc2ncc(COc3ccc(C=C(C(C)=O)C(C)=O)cc3)c(OC(C)C)c2c1` [Example 26 (147), 3-{[4-(4-isopropoxy-6-methoxyquinoline-3-yl)methyloxy]phenylmethylene}-2,4-dioxopentane], on human PPARγ receptor, the Emax at 0.1 µM was 0.1%, the Emax at 1 µM was determined as 3.7% and the Emax at 10 µM was 12.8%. In addition, the “Activity for TNFα transcription, relative activity” value (“Activity … relative activity” for short) in experiment [1] was 59.0.

Regarding `CCOC(Cc1ccc(OCc2cnc3ccc(OC)cc3c2OC(C)C)cc1)C(N)=O` (centres unmarked) [Example 3 (102), 2-ethoxy-3-{[4-(4-isopropoxy-6-methoxyquinoline-3-yl)methyloxy]phenyl}propanoic acid amide], at human PPARα receptor, the Emax at 0.1 µM stood at 0.4%, the Emax at 1 µM turned out to be 0.9% and the Emax at 10 µM amounted to 8.5%. Also, on human PPARγ receptor, the Emax at 0.1 µM was found to be 74.1%, the Emax at 1 µM came to 114% and the Emax at 10 µM is 108%. The “Activity … relative activity” value in experiment [1] turned out to be 71.7.

Regarding `CCOC(Cc1ccc(OCc2cnc3ccc(OC)cc3c2OC(C)C)cc1)C(=O)O` (centres unmarked) [Example 2 (61), 2-ethoxy-3-{[4-(4-isopropoxy-6-methoxyquinoline-3-yl)methyloxy]phenyl}propanoic acid], on human PPARα receptor, the Emax at 1 µM is 10.4% and the Emax at 10 µM worked out at 24.6%. In addition, at human PPARγ receptor, the Emax at 0.1 µM is 85% and the Emax at 1 µM turned out to be 114%. The “Reduction in blood sugar (%)” value in experiment [2] turned out to be 50%. In experiment [2] (plasma), the “Reduction in free fatty acid (%)” value came out at 46% and the “Reduction in triglyceride (%)” value is reported as 57%.

Consider `CCCCNC(=O)C(Cc1ccc(OCc2cnc3ccc(OC)cc3c2OC(C)C)cc1)OCC` (centres unmarked) [Example 4 (104), 2-ethoxy-3-{[4-(4-isopropoxy-6-methoxyquinoline-3-yl)methyloxy]phenyl}propanoic acid N-butylamide], for which, at human PPARα receptor, the Emax at 0.1 µM was 0.3%, the Emax at 1 µM came out at 0.3% and the Emax at 10 µM worked out at 0.3%. For the same compound, on human PPARγ receptor, the Emax at 0.1 µM was found to be 0.4%, the Emax at 1 µM turned out to be 1.1% and the Emax at 10 µM was 14.9%. Further, the “Activity … relative activity” value in experiment [1] is 64.0.

As for `CNC(=O)C(Cc1ccc(OCc2cnc3ccc(OC)cc3c2OC(C)C)cc1)C(C)=O` (centres unmarked) [Example 24 (141), 2-{[4-(4-isopropoxy-6-methoxyquinoline-3-yl)methyloxy]phenylmethyl}-3-oxobutanoic acid N-methylamide], on human PPARγ receptor, the Emax at 0.1 µM is 0.8%, the Emax at 1 µM was 1.2% and the Emax at 10 µM amounted to 9.4%. For the same compound, in experiment [1], the “Activity … relative activity” value amounted to 71.6.
